Where a name gives a salt, the structure may show the parent alone.
Experiments:
α-1A adrenoreceptor [1] = molecular target: T1, α-1A adrenoreceptor (Rattus norvegicus, UniProt P43140); assay: cell-based; details: phenylephrine-induced contraction, Schild plot; for Kb: read-out: In Vitro Characterization (pA2) Rat Vas (converted)
T1 sequence (P43140 1-466): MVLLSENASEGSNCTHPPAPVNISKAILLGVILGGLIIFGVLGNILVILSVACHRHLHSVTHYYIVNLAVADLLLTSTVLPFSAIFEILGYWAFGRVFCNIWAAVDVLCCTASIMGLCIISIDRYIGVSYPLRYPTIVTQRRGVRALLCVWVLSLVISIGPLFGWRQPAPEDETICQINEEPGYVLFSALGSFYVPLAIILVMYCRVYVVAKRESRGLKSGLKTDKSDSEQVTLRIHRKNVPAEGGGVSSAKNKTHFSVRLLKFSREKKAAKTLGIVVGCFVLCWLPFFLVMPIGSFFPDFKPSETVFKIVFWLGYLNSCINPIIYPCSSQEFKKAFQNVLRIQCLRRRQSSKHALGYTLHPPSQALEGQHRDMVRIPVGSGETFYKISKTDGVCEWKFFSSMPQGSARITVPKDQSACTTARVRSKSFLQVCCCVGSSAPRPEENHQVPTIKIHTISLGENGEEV
Outline: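 Phenylephrine dose-response curves for contraction were repeated against increasing test-agent concentrations. pA2 was derived by Schild plot [[…] vs log molarity of test agent].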

α-1A adrenoreceptor [2] = assay: Functional antagonism: inhibition of PE-induced contraction of canine prostate strips (Schild plot); format: cell-based; details: phenylephrine-induced contraction
Text: Canine prostate strips were used in vitro as previously described (Hieble, J.P., Boyce, A.J. and Caine, M., Fed. Proc., 45: 2609-2614 (1986)), to determine antagonist potencies against phenylephrine-induced contractions.
Functional assays indicative of pharmacologically defined α-1 adrenoreceptors were used to further characterize compounds. Inhibition of phenylephrine (PE)-induced contraction of canine prostate smooth muscle can be correlated with α-1A adrenoreceptor activation. […] For each of these models, agonist dose response curves were repeated against increasing concentrations of test agent to derive a Schild plot [log ([…]) against log (molarity of test agent)] to determine the pA2.

α-1 Adrenoceptors = assay: Functional antagonism in rat aorta (method not described); format: cell-based

Molecule	Kb (α-1A adrenoreceptor [1]) [pM]	In Vitro Characterization (pA2) Dog Prostate (α-1A adrenoreceptor [2])	also measured
COc1cccc2c1[C@@H]1CCN(CCCCn3c(=O)[nH]c4c(sc5ncc(Cl)nc54)c3=O)C[C@H]1CO2 [Example 97, 3-[4-((4aS,10bR)-trans-10-Methoxy-1,3,4,4a,5,10b-hexahydro-2H-[1]-benzopyrano[3,4-c]pyrido-3-yl)butyl]-8-chloro-pyrazino[2',3':4,5]thieno[3,2-d]pyrimidine-2,4(1H,3H)-dione dihydrochloride]	1550	8.6	–
COc1cccc2c1[C@@H]1CN(CCCCn3c(=O)[nH]c4c(sc5ncc(-c6ccccc6)nc54)c3=O)C[C@@H]1CO2 [Example 39, 3-[4-((3aR,9bR)-cis-9-Methoxy-1,2,3,3a,4,9b-hexahydro-[1]-benzopyrano[3,4-c]pyrrol-2-yl)butyl]-8-phenyl-pyrazino[2',3':4,5]thieno[3,2-d]pyrimidine-2,4(1H,3H)-dione hydrochloride]	162	8.52	–
COc1cccc2c1OC[C@H]1CN(CCn3c(=O)[nH]c4c(sc5ccccc54)c3=O)C[C@@H]21.Cl (racemic) [Example 67, 3-[2-((±)-cis-6-Methoxy-1,2,3,3a,4,9b-hexahydro-[1]-benzopyrano[3,4-c]pyrrol-2-yl)ethyl]-[1]benzthieno[3,2-d]pyrimidine-2,4(1H,3H)-dione hydrochloride]	–	7.33	–
COc1cccc2c1[C@@H]1CCN(CCCCn3c(=O)[nH]c4c(sc5cccnc54)c3=O)C[C@H]1CO2 [Example 95, 3-[4-((4aS,10bR)-trans-10-Methoxy-1,3,4,4a,5,10b-hexahydro-2H-[1]-benzopyrano[3,4-c]pyrido-3-yl)butyl]-pyrido[2',3':4,5]thieno[3,2-d]pyrimidine-2.4(1H,3H)-dione dihydrochloride]	–	8.58	–
COc1cccc2c1[C@H]1CN(CCCCn3c(=O)[nH]c4c(sc5nccnc54)c3=O)C[C@@H]1CO2.Cl.Cl (racemic) [Example 74, 3-[4-((±)-trans-9-Methoxy-1,2,3,3a,4,9b-hexahydro-[1]-benzopyrano[3,4-c]pyrrol-2-yl)butyl]-pyrazino[2',3':4,5]thieno[3,2-d]pyrimidine-2,4(1H,3H)-dione dihydrochloride]	794	9.03	–
COc1ccc2sc3c(=O)n(CCCCN4C[C@H]5COc6cccc(OC)c6[C@@H]5C4)c(=O)[nH]c3c2n1 [Example 26, 3-[4-((3aS,9bR)-trans-9-Methoxy-1,2,3,3a,4,9b-hexahydro-[1]-benzopyrano[3,4-c]pyrrol-2-yl)butyl]-8-methoxy-pyrido[2',3':4,5]thieno[3,2-d]pyrimidine-2,4(1H,3H)-dione hydrochloride]	45.7	9.15	–
COc1cccc2c1[C@@H]1CN(CCn3c(=O)[nH]c4c(sc5ccccc54)c3=O)C[C@@H]1CO2.Cl (racemic) [Example 65, 3-[2-((±)-cis-9-Methoxy-1,2,3,3a,4,9b-hexahydro-[1]-benzopyrano[3,4-c]pyrrol-2-yl)ethyl]-[1]benzthieno[3,2-d]pyrimidine-2,4(1H,3H)-dione hydrochloride]	–	7.76	–
COc1cccc2c1[C@@H]1CN(CCCCn3c(=O)[nH]c4c(sc5cccnc54)c3=O)C[C@@H]1CO2 [Example 1, 3-[4-((3aR,9bR)-cis-9-Methoxy-1,2,3,3a,4,9b-hexahydro-[1]-benzopyrano[3,4-c]pyrrol-2-yl)butyl]-pyrido[2',3':4,5]thieno[3,2-d]pyrimidine-2,4(1H,3H)-dione hydrochloride]	–	8.69	–
COc1cccc2c1[C@@H]1CN(CCCCn3c(=O)[nH]c4c(sc5ncc(-c6ccccc6)nc54)c3=O)C[C@H]1CO2 [Example 50, 3-[4-((3aS,9bR)-trans-9-Methoxy-1,2,3,3a,4,9b-hexahydro-[1]-benzopyrano[3,4-c]pyrrol-2-yl)butyl]-8-phenyl-pyrazino[2',3':4,5]thieno[3,2-d]pyrimidine-2,4(1H,3H)-dione hydrochloride]	44.7	8.45	–
3-[4-((3aR,9bR)-cis-9-Methoxy-1,2,3,3a,4,9b-hexahydro-[1]-benzopyrano[3,4-c]pyrrol-2-yl]butyl]-7-methoxy-pyrido[3',2':4,5]thieno[3,2-d]pyrimidine-2,4(1H,3H)-dione hydrochloride [Example 33]	–	–	In Vitro Characterization (pA2) Rat Vas (α-1A adrenoreceptor [1]): 9.02; In Vitro Characterization (pA2) Rat Aorta (α-1 Adrenoceptors): 9.15
COc1cccc2c1OC[C@H]1CN(CCCn3c(=O)[nH]c4c(sc5ccccc54)c3=O)C[C@@H]21.Cl (racemic) [Example 68, 3-[3-((±)-cis-6-Methoxy-1,2,3,3a,4,9b-hexahydro-[1]-benzopyrano[3,4-c]pyrrol-2-yl)propyl]-[1]benzthieno[3,2-d]pyrimidine-2,4(1H,3H)-dione hydrochloride]	–	7.02	–
COc1ccc2c(c1)OC[C@H]1CN(CCn3c(=O)[nH]c4c(sc5ccccc54)c3=O)C[C@@H]21.Cl (racemic) [Example 63, 3-[2-((±)-cis-7-Methoxy-1,2,3,3a,4,9b-hexahydro-[1]-benzopyrano[3,4-c]pyrrol-2-yl)ethyl]-[1]benzthieno[3,2-d]pyrimidine-2,4(1H,3H)-dione hydrochloride]	–	6.65	–
COc1cccc2c1[C@@H]1CN(CCCn3c(=O)[nH]c4c(sc5ccccc54)c3=O)C[C@@H]1CO2.Cl (racemic) [Example 66, 3-[3-((±)-cis-9-Methoxy-1,2,3,3a,4,9b-hexahydro-[1]-benzopyrano[3,4-c]pyrrol-2-yl)propyl]-[1]benzthieno[3,2-d]pyrimidine-2,4(1H,3H)-dione hydrochloride]	–	7.48	–
COc1cccc2c1[C@@H]1CCN(CCCCn3c(=O)[nH]c4c(sc5ncccc54)c3=O)C[C@H]1CO2 (racemic) [Example 85, 3-[4-((±)-trans-10-Methoxy-1,3,4,4a,5,10b-hexahydro-2H-[1]-benzopyrano[3,4-c]pyrido-3-yl)butyl]-pyrido[3',2':4,5]thieno[3,2-d]pyrimidine-2,4(1H,3H)-dione dihydrochloride]	–	8.6	–
COc1cccc2c1[C@@H]1CN(CCCCn3c(=O)[nH]c4c(sc5ncc(Cl)nc54)c3=O)C[C@H]1CO2 [Example 13, 3-[4-((3aS,9bR)-trans-9-Methoxy-1,2,3,3a,4,9b-hexahydro-[1]-benzopyrano[3,4-c]pyrrol-2-yl)butyl]-8-chloro-pyrazino[2',3':4,5]thieno[3,2-d]pyrimidine-2,4(1H,3H)-dione hydrochloride]	158	9.91	–
COc1cccc2c1[C@H]1CN(CCCCn3c(=O)[nH]c4c(sc5cccnc54)c3=O)C[C@H]1CO2 [Example 2, 3-[4-((3aS,9bS)-cis-9-Methoxy-1,2,3,3a,4,9b-hexahydro-[1]-benzopyrano[3,4-c]pyrrol-2-yl)butyl]-pyrido[2',3':4,5]thieno[3,2-d]pyrimidine-2,4(1H,3H)-dione hydrochloride]	–	7.95	–
COc1cccc2c1[C@@H]1CN(CCCCn3c(=O)[nH]c4c(sc5cccnc54)c3=O)C[C@H]1CO2 [Example 3, 3-[4-((3aS,9bR)-trans-9-Methoxy-1,2,3,3a,4,9b-hexahydro-[1]-benzopyrano[3,4-c]pyrrol-2-yl)butyl]-pyrido[2',3':4,5]thieno[3,2-d]pyrimidine-2,4(1H,3H)-dione hydrochloride]	–	9.43	–
Cl.O=c1[nH]c2c(sc3ccccc32)c(=O)n1CCN1C[C@@H]2COc3ccccc3[C@@H]2C1 (racemic) [Example 69, 3-[2-((±)-cis-1,2,3,3a,4,9b-hexahydro-[1]-benzopyrano[3,4-c]pyrrol-2-yl)ethyl]-[1]benzthieno[3,2-d]pyrimidine-2,4(1H,3H)-dione hydrochloride]	–	6.91	–
COc1ccc2c(c1)OC[C@H]1CN(CCCn3c(=O)[nH]c4c(sc5ccccc54)c3=O)C[C@@H]21.Cl (racemic) [Example 64, 3-[3-((±)-cis-7-Methoxy-1,2,3,3a,4,9b-hexahydro-[1]-benzopyrano[3,4-c]pyrrol-2-yl)propyl]-[1]benzthieno[3,2-d]pyrimidine-2,4(1H,3H)-dione hydrochloride]	–	6.92	–

— patent EP0942911B1, “BENZOPYRANOPYRROLE AND BENZOPYRANOPYRIDINE ALPHA-1 ADRENERGIC COMPOUNDS” (Abbott Laboratories, priority 1996, dated 1998)
